According to the supplement of paper PMC11208160:

Experiment: recombinant UMI read abundance after kanamycin selection (control-corrected) (log10(CPM+1)); higher = more efficient recombination; extreme values may be limits of the assay; sequences stand for … in AGTGCAGAGAAAATCGGCCAGTTTTCTCTGCCTGCAGTCCGCATGCCGTGGGACCCCTTGGGTTCTAACCTGTTGCCTAGATTTATGCAGCGGACTGCCTTTCTCCCAAAGTGATAAACCGG…AGGTTGGTTTCACT; site = the 11-nt donor
Outline: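 For the IS621 bridge recombinase, a pooled Escherichia coli screen tested donor and donor-binding-loop pairs. Cells received the pair library together with a target plasmid encoding a fixed target and T7-inducible recombinase, then went onto IPTG (0.07 mM) plus kanamycin or unselected plates in duplicate. After PCR across the donor–target junction and sequencing, recombinant UMI counts were normalized to CPM, averaged, and scaled by control-derived factors. Each value is given as log10(CPM+1).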
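Note: IS621 bridge recombinase in Escherichia coli cells against a fixed T5 target plasmid.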

Sequence	recombinant UMI read abundance (log10)
GGGGCACCATGGACCGGTTTTCCCGGTAATCCGTATTTGCA (site GAGGCACCTTG)	0.00459
GGGGCACCATGGACCGGTTTTCCCGGTAATCCGTATTTGCA (site GCGGCACCTTG)	0
GGGGCACCATGGACCGGTTTTCCCGGTAATCCGTATTTGCA (site GGAGCACCTTG)	0
GGGGCACCATGGACCGGTTTTCCCGGTAATCCGTATTTGCA (site GGCGCACCTTG)	0
GGGGCACCATGGACCGGTTTTCCCGGTAATCCGTATTTGCA (site GGGACACCTTG)	0
GGGGCACCATGGACCGGTTTTCCCGGTAATCCGTATTTGCA (site GGGCCACCTTG)	0.00389
GGGGCACCATGGACCGGTTTTCCCGGTAATCCGTATTTGCA (site GGGGAACCTTG)	0
GGGGCACCATGGACCGGTTTTCCCGGTAATCCGTATTTGCA (site GGGGCAACTTG)	0
GGGGCACCATGGACCGGTTTTCCCGGTAATCCGTATTTGCA (site GGGGCACCTAG)	0.0125
GGGGCACCATGGACCGGTTTTCCCGGTAATCCGTATTTGCA (site GGGGCACCTCG)	0.0103
GGGGCACCATGGACCGGTTTTCCCGGTAATCCGTATTTGCA (site GGGGCACCTGG)	0
GGGGCACCATGGACCGGTTTTCCCGGTAATCCGTATTTGCA (site GGGGCACCTTA)	0.011
GGGGCACCATGGACCGGTTTTCCCGGTAATCCGTATTTGCA (site GGGGCACCTTC)	0.0181
GGGGCACCATGGACCGGTTTTCCCGGTAATCCGTATTTGCA (site GGGGCACCTTG)	0
GGGGCACCATGGACCGGTTTTCCCGGTAATCCGTATTTGCA (site GGGGCACCTTT)	0.0161
GGGGCACCATGGACCGGTTTTCCCGGTAATCCGTATTTGCA (site GGGGCAGCTTG)	0
GGGGCACCATGGACCGGTTTTCCCGGTAATCCGTATTTGCA (site GGGGCATCTTG)	0
GGGGCACCATGGACCGGTTTTCCCGGTAATCCGTATTTGCA (site GGGGCCCCTTG)	0.0249
GGGGCACCATGGACCGGTTTTCCCGGTAATCCGTATTTGCA (site GGGGCGCCTTG)	0.0148
GGGGCACCATGGACCGGTTTTCCCGGTAATCCGTATTTGCA (site GGGGCTCCTTG)	0
GGGGCACCATGGACCGGTTTTCCCGGTAATCCGTATTTGCA (site GGGGGACCTTG)	0
GGGGCACCATGGACCGGTTTTCCCGGTAATCCGTATTTGCA (site GGGGTACCTTG)	0
GGGGCACCATGGACCGGTTTTCCCGGTAATCCGTATTTGCA (site GGGTCACCTTG)	0.0044
GGGGCACCATGGACCGGTTTTCCCGGTAATCCGTATTTGCA (site GGTGCACCTTG)	0
GGGGCACCATGGACCGGTTTTCCCGGTAATCCGTATTTGCA (site GTGGCACCTTG)	0.0102

Sequence	recombinant UMI read abundance (log10)
GGGGCACCATGGACCGGTTTTCCCGGTAATCCGTATTTGCA (site TGGGCACCTTG)	0.00982
GGGTCACCATGGACCGGTTTTCCCGGTAATCCGTATTTGCC (site GGGTCACCTGG)	0
GGTAATCCATGGACCGGTTTTCCCGGTAATCCGTATTTGTT (site CGGAATCCTAA)	0.0139
GGTAATCCATGGACCGGTTTTCCCGGTAATCCGTATTTGTT (site GGTAATCCTAA)	0.518
GGTACACCATGGACCGGTTTTCCCGGTAATCCGTATTTGAC (site AGTACACCTGT)	0
GGTACACCATGGACCGGTTTTCCCGGTAATCCGTATTTGAC (site CGTACACCTGT)	0
GGTACACCATGGACCGGTTTTCCCGGTAATCCGTATTTGAC (site GGTACACCTGT)	0
GGTACACCATGGACCGGTTTTCCCGGTAATCCGTATTTGAC (site TGTACACCTGT)	0
GGTACCTCATGGACCGGTTTTCCCGGTAATCCGTATTTGAG (site GGTACCTCTCT)	0.374
GGTACCTCATGGACCGGTTTTCCCGGTAATCCGTATTTGTT (site GGTACATCTAA)	0.0159
GGTACCTCATGGACCGGTTTTCCCGGTAATCCGTATTTGTT (site GGTACCTCTAA)	0.187
GGTACCTCATGGACCGGTTTTCCCGGTAATCCGTATTTGTT (site GGTACGTCTAA)	0.014
GGTACCTCATGGACCGGTTTTCCCGGTAATCCGTATTTGTT (site GGTACTTCTAA)	0.00378
GGTAGAACATGGACCGGTTTTCCCGGTAATCCGTATTTGGC (site GATAGAACTGC)	0
GGTAGAACATGGACCGGTTTTCCCGGTAATCCGTATTTGGC (site GCTAGAACTGC)	0
GGTAGAACATGGACCGGTTTTCCCGGTAATCCGTATTTGGC (site GGTAGAACTGC)	0.973
GGTAGAACATGGACCGGTTTTCCCGGTAATCCGTATTTGGC (site GTTAGAACTGC)	0
GGTATACCATGGACCGGTTTTCCCGGTAATCCGTATTTGGT (site GGTATACCTAC)	0.00474
GGTATTTCATGGACCGGTTTTCCCGGTAATCCGTATTTGCC (site GGTATTTCTGG)	0
GGTCCACCATGGACCGGTTTTCCCGGTAATCCGTATTTGCT (site GGTCCACCTAG)	0
GGTCGGACATGGACCGGTTTTCCCGGTAATCCGTATTTGCG (site GGTCGGACTCG)	1.29
GGTCTGTCATGGACCGGTTTTCCCGGTAATCCGTATTTGAA (site GGTCTGTCTTT)	0.0119
GGTCTTACATGGACCGGTTTTCCCGGTAATCCGTATTTGAG (site GGTCTTACTCT)	0.0687
GGTGCACCATGGACCGGTTTTCCCGGTAATCCGTATTTGCA (site GGAGCACCTTG)	0.00431
GGTGCACCATGGACCGGTTTTCCCGGTAATCCGTATTTGCA (site GGCGCACCTTG)	0.0224

Sequence	recombinant UMI read abundance (log10)
GGTGCACCATGGACCGGTTTTCCCGGTAATCCGTATTTGCA (site GGGGCACCTTG)	0
GGTGCACCATGGACCGGTTTTCCCGGTAATCCGTATTTGCA (site GGTGCACCTTG)	0
GGTGCGTCATGGACCGGTTTTCCCGGTAATCCGTATTTGTT (site GGTACGTCTAA)	0.0157
GGTGCGTCATGGACCGGTTTTCCCGGTAATCCGTATTTGTT (site GGTCCGTCTAA)	0.0208
GGTGCGTCATGGACCGGTTTTCCCGGTAATCCGTATTTGTT (site GGTGCGTCTAA)	0.668
GGTGCGTCATGGACCGGTTTTCCCGGTAATCCGTATTTGTT (site GGTTCGTCTAA)	0.0103
GGTGCTGCATGGACCGGTTTTCCCGGTAATCCGTATTTGCT (site GGTGCTGCTAG)	1.53
GGTGTAGCATGGACCGGTTTTCCCGGTAATCCGTATTTGGT (site GGTGTAGCTAC)	0.0948
GGTGTGACATGGACCGGTTTTCCCGGTAATCCGTATTTGTG (site GGTGTGACTCA)	0.68
GGTGTGTCATGGACCGGTTTTCCCGGTAATCCGTATTTGTG (site GGTGTGTCTCA)	1.16
GGTTAGACATGGACCGGTTTTCCCGGTAATCCGTATTTGCC (site GGATAGACTGG)	1.17
GGTTAGACATGGACCGGTTTTCCCGGTAATCCGTATTTGCC (site GGCTAGACTGG)	1.32
GGTTAGACATGGACCGGTTTTCCCGGTAATCCGTATTTGCC (site GGGTAGACTGG)	1.27
GGTTAGACATGGACCGGTTTTCCCGGTAATCCGTATTTGCC (site GGTTAGACTGG)	1.9
GGTTAGTCATGGACCGGTTTTCCCGGTAATCCGTATTTGCC (site GGTTAGTCTGG)	2.06
GGTTCAACATGGACCGGTTTTCCCGGTAATCCGTATTTGTA (site GGTACAACTTA)	0.00935
GGTTCAACATGGACCGGTTTTCCCGGTAATCCGTATTTGTA (site GGTCCAACTTA)	0.262
GGTTCAACATGGACCGGTTTTCCCGGTAATCCGTATTTGTA (site GGTGCAACTTA)	0.00737
GGTTCAACATGGACCGGTTTTCCCGGTAATCCGTATTTGTA (site GGTTCAACTTA)	0.00797
GGTTCATCATGGACCGGTTTTCCCGGTAATCCGTATTTGCC (site GGTTCATCTGG)	1.07
GGTTCATCATGGACCGGTTTTCCCGGTAATCCGTATTTGCT (site CGATCATCTAG)	0
GGTTCATCATGGACCGGTTTTCCCGGTAATCCGTATTTGCT (site GGTTCATCTAG)	1.84
GGTTGTCCATGGACCGGTTTTCCCGGTAATCCGTATTTGGC (site GGTTGTCCTGC)	0
GGTTTGGCATGGACCGGTTTTCCCGGTAATCCGTATTTGCT (site AGTTTGGCTAG)	0.702
GGTTTGGCATGGACCGGTTTTCCCGGTAATCCGTATTTGCT (site CGTTTGGCTAG)	0
